This is an account of results in patent US10168342B2, “Lipid probes and uses thereof” (THE SCRIPPS RESEARCH INSTITUTE, priority 2015, dated 2019).

SMILES strings stand for the structures. Where two headings read alike, the source gives them in different places.

Test [1] deals with T1, AEA-DA lipid probe targets in Neuro2a cells (Mus musculus, UniProt Q91YQ5).
T1 sequence (Q91YQ5 26-608): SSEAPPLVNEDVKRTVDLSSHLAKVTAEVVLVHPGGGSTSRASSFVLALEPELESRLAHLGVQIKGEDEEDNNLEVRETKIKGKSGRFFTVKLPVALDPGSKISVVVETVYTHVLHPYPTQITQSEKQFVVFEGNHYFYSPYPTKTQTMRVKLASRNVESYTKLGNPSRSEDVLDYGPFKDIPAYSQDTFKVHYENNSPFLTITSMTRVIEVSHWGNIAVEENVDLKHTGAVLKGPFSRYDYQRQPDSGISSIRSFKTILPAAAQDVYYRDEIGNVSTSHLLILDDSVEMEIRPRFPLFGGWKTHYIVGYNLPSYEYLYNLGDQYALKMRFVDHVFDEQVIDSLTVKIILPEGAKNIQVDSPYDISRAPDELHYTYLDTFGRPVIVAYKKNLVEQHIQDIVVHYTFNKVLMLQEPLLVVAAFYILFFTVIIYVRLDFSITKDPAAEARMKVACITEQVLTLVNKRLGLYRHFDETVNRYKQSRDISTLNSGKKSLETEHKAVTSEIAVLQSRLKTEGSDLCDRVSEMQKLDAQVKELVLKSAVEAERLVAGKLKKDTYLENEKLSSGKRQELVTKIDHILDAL

Test [2] addresses T2, AEA-DA lipid probe targets in Neuro2a cells (Mus musculus, UniProt Q99L04).
T2 sequence (Q99L04 1-313): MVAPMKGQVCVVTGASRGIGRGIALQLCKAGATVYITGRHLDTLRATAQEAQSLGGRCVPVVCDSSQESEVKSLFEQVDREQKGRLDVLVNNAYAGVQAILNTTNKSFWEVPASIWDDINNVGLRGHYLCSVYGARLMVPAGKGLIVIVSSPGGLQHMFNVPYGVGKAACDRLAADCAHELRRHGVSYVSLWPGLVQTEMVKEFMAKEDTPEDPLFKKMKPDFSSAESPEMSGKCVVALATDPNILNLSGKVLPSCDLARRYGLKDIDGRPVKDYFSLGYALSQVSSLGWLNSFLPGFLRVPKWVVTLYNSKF

The target of test [3] is T3, AEA-DA lipid probe targets in Neuro2a cells (Mus musculus, UniProt Q99P72).
T3 sequence (Q99P72 1-1162): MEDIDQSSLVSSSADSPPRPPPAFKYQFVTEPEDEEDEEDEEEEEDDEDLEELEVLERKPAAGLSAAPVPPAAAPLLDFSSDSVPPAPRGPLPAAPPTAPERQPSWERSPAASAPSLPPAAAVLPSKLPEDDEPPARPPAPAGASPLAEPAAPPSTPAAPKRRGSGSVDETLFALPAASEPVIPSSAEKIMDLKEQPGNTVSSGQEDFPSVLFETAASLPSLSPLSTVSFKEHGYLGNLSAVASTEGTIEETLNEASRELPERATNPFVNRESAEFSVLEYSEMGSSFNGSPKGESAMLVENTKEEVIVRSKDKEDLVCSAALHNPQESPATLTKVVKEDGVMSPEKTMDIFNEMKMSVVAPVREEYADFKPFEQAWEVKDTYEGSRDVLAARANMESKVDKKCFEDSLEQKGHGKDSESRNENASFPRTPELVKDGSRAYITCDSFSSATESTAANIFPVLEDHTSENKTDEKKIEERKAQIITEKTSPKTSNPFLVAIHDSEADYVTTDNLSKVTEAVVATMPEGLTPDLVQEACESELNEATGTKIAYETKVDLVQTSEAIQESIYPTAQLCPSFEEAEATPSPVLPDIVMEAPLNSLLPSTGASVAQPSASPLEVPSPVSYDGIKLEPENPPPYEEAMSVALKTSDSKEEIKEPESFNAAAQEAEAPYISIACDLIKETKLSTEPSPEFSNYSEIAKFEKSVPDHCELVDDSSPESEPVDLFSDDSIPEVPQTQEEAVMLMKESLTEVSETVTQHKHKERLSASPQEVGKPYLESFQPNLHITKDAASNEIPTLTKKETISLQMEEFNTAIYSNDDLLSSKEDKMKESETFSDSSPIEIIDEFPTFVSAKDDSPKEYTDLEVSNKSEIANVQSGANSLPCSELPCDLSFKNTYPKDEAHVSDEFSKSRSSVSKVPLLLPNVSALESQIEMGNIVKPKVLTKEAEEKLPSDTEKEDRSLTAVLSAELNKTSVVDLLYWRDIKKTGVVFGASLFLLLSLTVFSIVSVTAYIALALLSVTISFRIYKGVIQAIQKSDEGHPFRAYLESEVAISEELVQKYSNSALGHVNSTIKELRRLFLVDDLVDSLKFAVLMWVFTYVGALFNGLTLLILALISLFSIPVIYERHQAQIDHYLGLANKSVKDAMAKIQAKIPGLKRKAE

On to `CCCCC/C=C\C/C=C\C/C=C\C/C=C\CCCC(=O)NCCO` [AEA, anandamide, reference compound], for which the “SILAC ratio Rpn1” value in test [1] (competitor 200 μM) worked out at 1.6. The “SILAC ratio, Dhrs1” value in test [2] (competitor 200 μM) is 18.4. Moreover, the “SILAC ratio, Rtn4” value in test [3] (competitor 200 μM) amounted to 1.8.
As for `C=CCN(C)CCCCCCOc1ccc(C(=O)c2ccc(Br)cc2)c(F)c1` [Ro 48-8071, reference compound], the “SILAC ratio Rpn1” value in test [1] (competitor 25 μM) is reported as 0.9. Further, in test [2] (competitor 25 μM), the “SILAC ratio, Dhrs1” value is 9.5. For the same molecule, the “SILAC ratio, Rtn4” value in test [3] (competitor 25 μM) worked out at 1.0.
In the case of `CN1CCN(C(=O)c2c(-c3ccccc3)c3cc([N+](=O)[O-])ccc3n2C)CC1` [KML110, (1-Methyl-5-nitro-3-phenyl-1H-indol-2-yl)(4-methylpiperazin-1-yl)methanone], in test [1] (competitor 25 μM), the “SILAC ratio Rpn1” value was 1.2. For the same molecule, the “SILAC ratio, Dhrs1” value in test [2] (competitor 25 μM) came out at 2.7. Besides, the “SILAC ratio, Rtn4” value in test [3] (competitor 25 μM) stood at 1.4.
Regarding `O=C(/C=C/c1cccnc1)NCCCCC1CCN(C(=O)c2ccccc2)CC1` [FK-866, reference compound], the “SILAC ratio Rpn1” value in test [1] (competitor 25 μM) is 1.2. Also, in test [2] (competitor 25 μM), the “SILAC ratio, Dhrs1” value is on record as 8.0. Also, the “SILAC ratio, Rtn4” value in test [3] (competitor 25 μM) was determined as 1.1.
With `CN1CCN(C(=O)c2[nH]c3ccc([N+](=O)[O-])cc3c2-c2ccccc2)CC1` [MJN228, (4-Methylpiperazin-1-yl)(5-nitro-3-phenyl-1H-indol-2-yl)methanone], the “SILAC ratio Rpn1” value amounted to 1.3 in test [1] (competitor 10 μM), 1.4 in test [1] (competitor 25 μM), 1.2 in test [1] (competitor 50 μM) and 1.6 in test [1] (competitor 100 μM). Besides, the “SILAC ratio, Dhrs1” value is 1.4 in test [2] (competitor 10 μM), 1.8 in test [2] (competitor 25 μM), 2.4 in test [2] (competitor 50 μM) and 4.4 in test [2] (competitor 100 μM). Also, the “SILAC ratio, Rtn4” value in test [3] (competitor 10 μM) is recorded as 1.0; in test [3] (competitor 25 μM), 1.3; in test [3] (competitor 50 μM), 1.2; in test [3] (competitor 100 μM), 1.4.
